Assay results reported in patent US9873709B2 (priority 2013, dated 2018).
pIC50: −log10 of the molar value.

Assays:
[1] = system: JAK1-dependent STAT6 phosphorylation downstream of IL-13 stimulation in BEAS-2B human bronchial epithelial cells; test: cells; details: read-out: IL13-pSTAT6 BEASB2B IC50
[2] = system: JAK1-dependent STAT6 phosphorylation downstream of IL-13 stimulation in TF-1 human erythroleukemia cells; test: cells; details: TF-1, read-out: IL-13-pSTAT6 IC50

CN1CCC(N(C)C(=O)c2ccc(Nc3nc4c(N5CCC(O)(c6ccc(Cl)cc6)CC5)cccn4n3)cc2)CC1 [Example 1-17, 4-[[8-[4-(4-chlorophenyl)-4-hydroxy-1-piperidyl]-[1,2,4]triazolo[1,5-a]pyridin-2-yl]amino]-N-methyl-N-(1-methyl-4-piperidyl)benzamide]
pIC50 [1]: 6.82 | pIC50 [2]: 7.47

CNC1CN(C(=O)c2ccc(Nc3nc4c(N5CCC(O)(c6ccc(Cl)cc6)CC5)cccn4n3)cc2)C1 [Example 1-47, [4-[[8-[4-(4-chlorophenyl)-4-hydroxy-1-piperidyl]-[1,2,4]triazolo[1,5-a]pyridin-2-yl]amino]phenyl]-[3-(methylamino)azetidin-1-yl]methanone]
pIC50 [1]: 7.24 | pIC50 [2]: 7.99

O=C(NCCCN1CCOCC1)c1ccc(Nc2nc3c(N4CCC(O)(c5ccc(Cl)cc5)CC4)cccn3n2)cc1 [Example 1-98, 4-[[8-[4-(4-chlorophenyl)-4-hydroxy-1-piperidyl]-[1,2,4]triazolo[1,5-a]pyridin-2-yl]amino]-N-(3-morpholinopropyl) benzamide]
pIC50 [1]: 7.37 | pIC50 [2]: 7.92

CN1CCCC1CCNC(=O)c1ccc(Nc2nc3c(N4CCC(O)(c5ccc(Cl)cc5)CC4)cccn3n2)cc1 (stereo not drawn) [Example 1-102, 4-[[8-[4-(4-chlorophenyl)-4-hydroxy-1-piperidyl]-[1,2,4]triazolo[1,5-a]pyridin-2-yl]amino]-N-[2-(1-methylpyrrolidin-2-yl)ethyl]benzamide]
pIC50 [1]: 7.26 | pIC50 [2]: 7.35

O=C(c1ccc(Nc2nc3c(N4CCC(O)(c5ccc(Cl)cc5)CC4)cccn3n2)cc1)N1CCC(N2CCOCC2)C1 (stereo not drawn) [Example 1-127, [4-[[8-[4-(4-chlorophenyl)-4-hydroxy-1-piperidyl]-[1,2,4]triazolo[1,5-a]pyridin-2-yl]amino]phenyl]-(3-morpholinopyrrolidin-1-yl)methanone]
pIC50 [1]: 7.61 | pIC50 [2]: 7.83

CN(C)c1cc(CC2CCN(C(=O)c3ccc(Nc4nc5c(N6CCC(O)(c7ccc(Cl)cc7)CC6)cccn5n4)cc3)C2)ncn1 (stereo not drawn) [Example 1-151, [4-[[8-[4-(4-chlorophenyl)-4-hydroxy-1-piperidyl]-[1,2,4]triazolo[1,5-a]pyridin-2-yl]amino]phenyl]-[3-[[6-(dimethylamino)pyrimidin-4-yl]methyl]pyrrolidin-1-yl]methanone]
pIC50 [1]: 6.78 | pIC50 [2]: 6.97

O=C(NCCc1ccncc1)c1ccc(Nc2nc3c(N4CCC(O)(c5ccc(Cl)cc5)CC4)cccn3n2)cc1 [Example 1-161, 4-[[8-[4-(4-chlorophenyl)-4-hydroxy-1-piperidyl]-[1,2,4]triazolo[1,5-a]pyridin-2-yl]amino]-N-[2-(4-pyridyl)ethyl]benzamide]
pIC50 [1]: 7.31 | pIC50 [2]: 7.63

CN1CCC(N(C)C(=O)c2ccc(Nc3nc4c(N5CCC(CCO)(c6ccc(Cl)cc6)CC5)cccn4n3)cc2)CC1 [Example 1-255, 4-[[8-[4-(4-chlorophenyl)-4-(2-hydroxyethyl)-1-piperidyl]-[1,2,4]triazolo[1,5-a]pyridin-2-yl]amino]-N-methyl-N-(1-methyl-4-piperidyl)benzamide; formic acid]
pIC50 [1]: 6.80 | pIC50 [2]: 7.57

COCC1(c2ccc(Cl)cc2)CCN(c2cccn3nc(Nc4ccc(C(=O)N(C)C5CCN(C)CC5)cc4)nc23)CC1 [Example 1-258, 4-[[8-[4-(4-chlorophenyl)-4-(methoxymethyl)-1-piperidyl]-[1,2,4]triazolo[1,5-a]pyridin-2-yl]amino]-N-methyl-N-(1-methyl-4-piperidyl)benzamide; formic acid]
pIC50 [1]: 5.84 | pIC50 [2]: 7.03

CN1CCC2CN(C(=O)c3ccc(Nc4nc5c(N6CCC(CO)(c7ccc(Cl)cc7)CC6)cccn5n4)cc3)CC21 (stereo not drawn) [Example 1-275, [4-[[8-[4-(4-chlorophenyl)-4-(hydroxymethyl)-1-piperidyl]-[1,2,4]triazolo[1,5-a]pyridin-2-yl]amino]phenyl]-(1-methyl-2,3,3a,4,6,6a-hexahydropyrrolo[2,3-c]pyrrol-5-yl)methanone]
pIC50 [1]: 7.26 | pIC50 [2]: 8.52

O=C(c1ccc(Nc2nc3c(N4CCC(CO)(c5ccc(Cl)cc5)CC4)cccn3n2)cc1)N1CCC(c2ccccn2)CC1 [Example 1-276, [4-[[8-[4-(4-chlorophenyl)-4-(hydroxymethyl)-1-piperidyl]-[1,2,4]triazolo[1,5-a]pyridin-2-yl]amino]phenyl]-[4-(2-pyridyl)-1-piperidyl]methanone]
pIC50 [1]: 7.09 | pIC50 [2]: 7.02

C[C@H]1CN(CCNC(=O)c2ccc(Nc3nc4c(N5CCC(CO)(c6ccc(Cl)cc6)CC5)cccn4n3)cc2)C[C@H](C)O1 [Example 1-277, 4-[[8-[4-(4-chlorophenyl)-4-(hydroxymethyl)-1-piperidyl]-[1,2,4]triazolo[1,5-a]pyridin-2-yl]amino]-N-[2-[(2S,6S)-2,6-dimethylmorpholin-4-yl]ethyl]benzamide]
pIC50 [1]: 7.13 | pIC50 [2]: 7.64

CNC1CCN(C(=O)Cn2cc(Nc3nc4c(N5CCC(CO)(c6ccc(Cl)cc6)CC5)cccn4n3)cn2)CC1 [Example 1-291, 2-[4-[[8-[4-(4-chlorophenyl)-4-(hydroxymethyl)-1-piperidyl]-[1,2,4]triazolo[1,5-a]pyridin-2-yl]amino]pyrazol-1-yl]-1-[4-(methylamino)-1-piperidyl]ethanone]
pIC50 [1]: 6.28

O=C(NCCCN1CCOCC1)c1ccc(Nc2nc3c(C4C=CN(C(=O)CCC(F)(F)F)CC4)cccn3n2)cc1 (stereo not drawn) [Example 1-295, N-(3-morpholinopropyl)-4-[[8-[1-(4,4,4-trifluorobutanoyl)-3,4-dihydro-2H-pyridin-4-yl]-[1,2,4]triazolo[1,5-a]pyridin-2-yl]amino]benzamide]
pIC50 [1]: 6.14

CN(CCC#N)C1CCN(C(=O)Cn2cc(Nc3nc4c(N5CCC(CO)(c6ccc(Cl)cc6)CC5)cccn4n3)cn2)CC1 [Example 1-296, 3-[[1-[2-[4-[[8-[4-(4-chlorophenyl)-4-(hydroxymethyl)-1-piperidyl]-[1,2,4]triazolo[1,5-a]pyridin-2-yl]amino]pyrazol-1-yl]acetyl]-4-piperidyl]-methyl-amino]propanenitrile]
pIC50 [1]: 7.90

CCOC(=O)N1CC=C(c2cccn3nc(Nc4ccc(C(=O)N5CCC(N6CCOCC6)CC5)cc4)nc23)CC1 [Example 2-18, ethyl 4-[2-[4-(4-morpholinopiperidine-1-carbonyl)anilino]-[1,2,4]triazolo[1,5-a]pyridin-8-yl]-3,6-dihydro-2H-pyridine-1-carboxylate]
pIC50 [1]: 6.87

CCOC(=O)N1CC=C(c2cccn3nc(Nc4ccc(C(=O)N5CCC(N6CC(C)OC(C)C6)CC5)cc4)nc23)CC1 (stereo not drawn) [Example 2-63, ethyl 4-[2-[4-[4-(2,6-dimethylmorpholin-4-yl)piperidine-1-carbonyl]anilino]-[1,2,4]triazolo[1,5-a]pyridin-8-yl]-3,6-dihydro-2H-pyridine-1-carboxylate]
pIC50 [1]: 6.82

CCOC(=O)N1CC=C(c2cccn3nc(Nc4ccc(C(=O)N5CCC(N6CCOCC6)C5)cc4)nc23)CC1 (stereo not drawn) [Example 2-66, ethyl 4-[2-[4-(3-morpholinopyrrolidine-1-carbonyl)anilino]-[1,2,4]triazolo[1,5-a]pyridin-8-yl]-3,6-dihydro-2H-pyridine-1-carboxylate]
pIC50 [1]: 6.65
